Reference: ChEMBL document CHEMBL5291721, “A preclinical secondary pharmacology resource illuminates target-adverse drug reaction associations of marketed drugs” (Nat Commun, 2023)

Key:
Adenosine receptor A2a = Adenosine receptor A2a (Homo sapiens, UniProt P29274)
[1] = target: T1, Prostaglandin G/H synthase 1 (Rattus norvegicus, UniProt Q63921); type: functional
T1 sequence (Q63921 whole entry): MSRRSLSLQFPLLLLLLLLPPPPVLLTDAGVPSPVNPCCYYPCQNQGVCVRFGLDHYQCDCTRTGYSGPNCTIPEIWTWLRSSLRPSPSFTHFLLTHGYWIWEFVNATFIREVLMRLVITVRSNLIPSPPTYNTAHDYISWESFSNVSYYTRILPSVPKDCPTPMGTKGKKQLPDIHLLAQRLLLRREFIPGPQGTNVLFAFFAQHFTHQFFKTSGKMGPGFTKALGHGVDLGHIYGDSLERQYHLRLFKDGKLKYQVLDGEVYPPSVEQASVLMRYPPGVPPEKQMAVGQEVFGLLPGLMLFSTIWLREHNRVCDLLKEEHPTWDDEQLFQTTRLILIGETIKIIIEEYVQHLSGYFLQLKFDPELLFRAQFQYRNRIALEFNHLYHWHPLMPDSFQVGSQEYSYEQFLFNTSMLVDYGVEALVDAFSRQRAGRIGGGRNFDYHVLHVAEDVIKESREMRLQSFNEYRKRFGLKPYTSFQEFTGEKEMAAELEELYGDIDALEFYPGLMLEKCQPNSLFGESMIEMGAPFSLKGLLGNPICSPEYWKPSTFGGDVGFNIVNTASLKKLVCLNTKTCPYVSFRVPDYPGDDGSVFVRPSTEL

Progesterone receptor = target: T2, Progesterone receptor (Homo sapiens, UniProt P06401); type: functional
T2 sequence (P06401 whole entry): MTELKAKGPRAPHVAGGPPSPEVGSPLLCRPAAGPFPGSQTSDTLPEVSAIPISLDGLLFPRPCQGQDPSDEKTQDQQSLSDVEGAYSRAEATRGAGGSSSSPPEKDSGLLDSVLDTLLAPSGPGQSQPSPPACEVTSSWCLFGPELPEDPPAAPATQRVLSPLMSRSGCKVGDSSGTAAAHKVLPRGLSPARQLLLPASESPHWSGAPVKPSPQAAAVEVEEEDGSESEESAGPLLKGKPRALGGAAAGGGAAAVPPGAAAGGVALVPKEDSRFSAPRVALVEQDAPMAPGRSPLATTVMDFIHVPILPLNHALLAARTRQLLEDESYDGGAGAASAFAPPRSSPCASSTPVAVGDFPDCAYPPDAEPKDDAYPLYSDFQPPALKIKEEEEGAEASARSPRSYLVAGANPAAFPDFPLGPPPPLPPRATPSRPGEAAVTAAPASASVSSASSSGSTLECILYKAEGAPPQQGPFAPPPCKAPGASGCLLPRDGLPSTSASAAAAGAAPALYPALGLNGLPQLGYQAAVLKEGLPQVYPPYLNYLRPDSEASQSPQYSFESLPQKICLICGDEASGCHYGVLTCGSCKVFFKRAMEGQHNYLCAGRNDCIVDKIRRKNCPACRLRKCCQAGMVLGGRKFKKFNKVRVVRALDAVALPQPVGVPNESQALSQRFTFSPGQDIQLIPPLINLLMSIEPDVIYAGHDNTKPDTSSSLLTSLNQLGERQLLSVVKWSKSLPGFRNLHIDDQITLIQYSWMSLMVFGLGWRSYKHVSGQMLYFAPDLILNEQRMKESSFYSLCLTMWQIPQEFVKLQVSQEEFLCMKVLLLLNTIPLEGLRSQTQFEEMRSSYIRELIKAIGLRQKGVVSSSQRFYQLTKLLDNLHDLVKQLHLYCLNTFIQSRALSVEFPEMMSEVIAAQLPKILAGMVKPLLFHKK

[2] = target: T3, Type-1 angiotensin II receptor (Homo sapiens, UniProt P30556)
T3 sequence (P30556 whole entry): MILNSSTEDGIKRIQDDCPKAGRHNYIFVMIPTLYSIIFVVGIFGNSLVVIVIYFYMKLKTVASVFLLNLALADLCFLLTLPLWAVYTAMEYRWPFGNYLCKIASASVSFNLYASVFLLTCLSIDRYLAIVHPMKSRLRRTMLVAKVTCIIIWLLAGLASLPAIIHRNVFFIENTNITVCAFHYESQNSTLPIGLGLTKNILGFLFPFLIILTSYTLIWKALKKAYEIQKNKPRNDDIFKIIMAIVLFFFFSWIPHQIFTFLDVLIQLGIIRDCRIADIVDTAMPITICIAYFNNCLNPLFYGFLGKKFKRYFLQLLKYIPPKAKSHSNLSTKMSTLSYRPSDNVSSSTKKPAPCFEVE

Adenosine receptor A1 = target: T4, Adenosine receptor A1 (Homo sapiens, UniProt P30542)
T4 sequence (P30542 whole entry): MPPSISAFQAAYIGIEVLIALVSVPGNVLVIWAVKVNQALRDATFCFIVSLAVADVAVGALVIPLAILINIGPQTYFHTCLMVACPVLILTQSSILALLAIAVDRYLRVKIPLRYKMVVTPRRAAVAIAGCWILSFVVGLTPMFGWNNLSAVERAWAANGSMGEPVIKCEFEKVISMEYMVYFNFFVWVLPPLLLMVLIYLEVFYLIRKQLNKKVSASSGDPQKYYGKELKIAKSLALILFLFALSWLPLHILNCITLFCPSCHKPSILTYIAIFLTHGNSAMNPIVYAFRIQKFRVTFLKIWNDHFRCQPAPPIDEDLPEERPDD

[3] = target: 5-hydroxytryptamine receptor 2B (Homo sapiens, UniProt P41595); type: functional, cell-based
Mu-type opioid receptor = Mu-type opioid receptor (Homo sapiens, UniProt P35372); assay: biochemical; type: functional
[4] = target: T5, Alpha-2A adrenergic receptor (Homo sapiens, UniProt P08913); type: functional, cell-based
T5 sequence (P08913 whole entry): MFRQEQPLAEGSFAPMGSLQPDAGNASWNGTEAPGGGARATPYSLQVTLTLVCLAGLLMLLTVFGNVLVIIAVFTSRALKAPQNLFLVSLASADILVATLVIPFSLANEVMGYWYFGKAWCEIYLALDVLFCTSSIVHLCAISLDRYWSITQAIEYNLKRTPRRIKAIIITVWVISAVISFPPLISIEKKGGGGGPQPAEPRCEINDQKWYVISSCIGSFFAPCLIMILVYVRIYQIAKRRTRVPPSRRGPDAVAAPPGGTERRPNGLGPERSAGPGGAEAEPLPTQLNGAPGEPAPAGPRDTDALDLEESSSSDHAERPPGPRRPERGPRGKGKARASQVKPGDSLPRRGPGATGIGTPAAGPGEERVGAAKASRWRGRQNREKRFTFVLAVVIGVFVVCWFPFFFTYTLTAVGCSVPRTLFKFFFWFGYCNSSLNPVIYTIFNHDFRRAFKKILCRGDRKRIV

Vasopressin V1a receptor = Vasopressin V1a receptor (Homo sapiens, UniProt P37288)
Also: assay procedure not described here.

Sequence of 5-hydroxytryptamine receptor 2B (P41595 whole entry): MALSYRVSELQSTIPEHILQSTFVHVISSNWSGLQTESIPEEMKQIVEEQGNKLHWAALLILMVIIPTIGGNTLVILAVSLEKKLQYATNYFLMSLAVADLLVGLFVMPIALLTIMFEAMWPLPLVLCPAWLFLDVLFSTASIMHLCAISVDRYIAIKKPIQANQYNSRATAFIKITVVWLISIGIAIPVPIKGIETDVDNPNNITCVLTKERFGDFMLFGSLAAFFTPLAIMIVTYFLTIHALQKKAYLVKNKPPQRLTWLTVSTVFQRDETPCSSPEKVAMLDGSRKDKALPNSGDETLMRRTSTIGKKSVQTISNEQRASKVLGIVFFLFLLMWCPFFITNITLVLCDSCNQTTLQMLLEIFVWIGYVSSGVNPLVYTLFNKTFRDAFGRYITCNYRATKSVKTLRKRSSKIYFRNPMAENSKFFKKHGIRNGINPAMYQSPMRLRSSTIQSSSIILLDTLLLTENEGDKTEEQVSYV
Sequence of Mu-type opioid receptor (P35372 whole entry): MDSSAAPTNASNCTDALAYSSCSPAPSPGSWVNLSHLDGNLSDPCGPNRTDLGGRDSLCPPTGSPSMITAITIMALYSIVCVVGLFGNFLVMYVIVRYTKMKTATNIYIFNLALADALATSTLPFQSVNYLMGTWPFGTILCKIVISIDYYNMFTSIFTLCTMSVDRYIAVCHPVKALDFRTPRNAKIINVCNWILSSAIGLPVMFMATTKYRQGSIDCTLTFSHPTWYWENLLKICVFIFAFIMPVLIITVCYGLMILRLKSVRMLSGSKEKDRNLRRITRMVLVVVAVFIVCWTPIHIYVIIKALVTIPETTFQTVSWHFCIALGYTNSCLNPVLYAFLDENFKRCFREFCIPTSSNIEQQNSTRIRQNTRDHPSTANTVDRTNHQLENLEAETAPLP
Sequence of Vasopressin V1a receptor (P37288 whole entry): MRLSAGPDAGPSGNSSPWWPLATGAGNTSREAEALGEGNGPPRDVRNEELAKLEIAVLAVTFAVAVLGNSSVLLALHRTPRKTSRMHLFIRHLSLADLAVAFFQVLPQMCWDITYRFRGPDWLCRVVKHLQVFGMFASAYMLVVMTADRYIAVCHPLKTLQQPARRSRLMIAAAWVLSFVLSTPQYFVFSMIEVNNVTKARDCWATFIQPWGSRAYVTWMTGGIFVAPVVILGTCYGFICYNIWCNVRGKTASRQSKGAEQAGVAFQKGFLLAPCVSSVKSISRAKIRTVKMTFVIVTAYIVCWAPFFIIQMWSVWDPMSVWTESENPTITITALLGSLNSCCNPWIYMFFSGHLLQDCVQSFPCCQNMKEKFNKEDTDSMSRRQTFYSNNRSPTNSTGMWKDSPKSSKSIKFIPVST
Sequence of Adenosine receptor A2a (P29274 whole entry): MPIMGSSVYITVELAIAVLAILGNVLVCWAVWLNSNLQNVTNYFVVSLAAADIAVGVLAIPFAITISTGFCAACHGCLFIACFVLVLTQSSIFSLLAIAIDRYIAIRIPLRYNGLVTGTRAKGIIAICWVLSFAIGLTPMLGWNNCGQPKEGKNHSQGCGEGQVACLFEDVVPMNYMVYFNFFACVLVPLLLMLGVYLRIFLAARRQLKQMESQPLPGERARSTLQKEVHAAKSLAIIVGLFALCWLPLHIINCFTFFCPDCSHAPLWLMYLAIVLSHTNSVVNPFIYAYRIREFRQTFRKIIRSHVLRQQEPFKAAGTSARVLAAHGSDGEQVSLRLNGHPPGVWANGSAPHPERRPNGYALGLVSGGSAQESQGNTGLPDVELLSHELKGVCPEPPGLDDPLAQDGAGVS

Row | Structure (SMILES) | AC50 (Adenosine receptor A2a) [µM] | AC50 [1] [µM] | AC50 (Progesterone receptor) [µM] | AC50 [2] [µM] | AC50 (Adenosine receptor A1) [µM] | AC50 [3] [µM] | AC50 (Mu-type opioid receptor) [µM] | AC50 [4] [µM] | AC50 (Vasopressin V1a receptor) [µM]
1 | COc1ccc2c(c1)c(CC(=O)OCC(=O)O)c(C)n2C(=O)c1ccc(Cl)cc1 [ACEMETACIN] | > 30 | 30 | > 30 | > 30 | > 30 | > 30 | > 30 | > 30 | –
2 | COc1ccc2cccc(CCNC(C)=O)c2c1 [AGOMELATINE] | > 30 | > 30 | – | > 30 | > 30 | > 30 | > 30 | > 30 | > 10
3 | CC(=O)OCC(=O)[C@@]12OC3(CCCC3)O[C@@H]1C[C@H]1[C@@H]3CCC4=CC(=O)C=C[C@]4(C)[C@@]3(F)[C@@H](O)C[C@@]12C [AMCINONIDE] | > 10 | > 10 | – | > 10 | > 10 | > 10 | > 30 | > 10 | > 10
4 | CCCCN1CCCCC1C(=O)Nc1c(C)cccc1C (stereo not given) [BUPIVACAINE] | > 30 | > 30 | > 30 | > 30 | > 30 | > 30 | > 30 | > 30 | –
5 | CCOc1cc(N)c([N+](=O)[O-])cc1C(=O)NC1CCN(CC2CC=CCC2)CC1 (stereo not given) [CINITAPRIDE] | > 30 | > 30 | – | > 30 | > 30 | > 30 | > 30 | > 30 | > 30
6 | CC(C)(Oc1ccc(C2CC2(Cl)Cl)cc1)C(=O)O (stereo not given) [CIPROFIBRATE] | > 30 | > 30 | > 30 | > 30 | > 30 | > 30 | > 30 | > 30 | –
7 | Cc1c(O)c(=O)ccn1C [DEFERIPRONE] | > 30 | > 3 | > 30 | > 30 | > 30 | > 30 | > 30 | > 30 | –
8 | C#CC1(OC(N)=O)CCCCC1 [ETHINAMATE] | > 10 | > 10 | > 10 | > 30 | > 10 | > 10 | – | > 10 | > 10
9 | CCC1(C2=CCCCCC2)C(=O)NC(=O)NC1=O [HEPTABARBITAL] | > 10 | > 10 | > 10 | > 10 | > 10 | > 10 | – | > 10 | > 10
10 | CN1CC[C@]23CCCC[C@H]2[C@H]1Cc1ccc(O)cc13 [LEVORPHANOL] | > 10 | > 10 | > 10 | > 10 | > 10 | > 10 | – | > 10 | > 10
